From patent US6956044B1, “Compositions and methods for treatment of epilepsy” (priority 2000, dated 2005)

What was measured:
[1] = system: maximal electroshock seizures; experiment: Maximal electroshock seizure test; format: in vivo; details: albino mice, intraperitoneal, 140 minutes after injection of test compound
Excerpt: Effect Against Maximal Electroshock Seizures. […] Given intraperitoneally to albino mice these compounds have afforded complete protection from maximal electroshock seizures for several hours. To test the maximal seizure anticonvulsant properties in albino mice weighing approximately 25 grams, first an electrical current was delivered via cranial electrodes at a voltage strength which induced a typical maximal electroconvulsant seizure in all the mice. Maximal tonic electrochock seizures were induced with 2 to 7 milliamperes being discharged at 18 volts, and at a frequency of 1000 per second. Abolition of the hindlimb tonic extension component of the seizure was defined as protection in this maximal electroshock test (L. S. Goodman et al., Jour. Pharm. Exper. Therap., 108: 168, 1953). The apparatus used was structured so that the current administered was independent of external resistance. There were 10 animals per group, and they were exposed to electroshock seizures at 20, 80 and 140 minutes after injection of the test compounds. The mice received graded doses of the compounds, and the dose protecting 50% of the animals was calculated biometrically.

[2] = Intraperitoneal LD50 (Table 2); format: in vivo
[3] = system: pentylenetetrazol-induced seizures; experiment: Pentylenetetrazol (Metrazol) seizure test; format: in vivo; details: pentylenetetrazol 120 mg/kg i.p. 30 minutes after compound
Experimental: Effect Against Pentylenetetrazol (Metrazol) Seizures. […] The pentylenetetrazol (metrazol), 120 mg/kg, was injected intraperitoneally 30 minutes after the oral administration of the respective graded doses of the compounds. Protection in this test was defined as a failure to detect even a single episode of clonic spasms of at least 5 seconds duration during a 30 minute period following the injection of the metrazol (F. M. Berger, 78:277, 1951). […] Exper. Med. Biol., against pentylenetetrazol seizures ([…] al., Epilepsia, 19: 193-408, 1978).

Oral LD50 (Table 3) = format: in vivo
[4] = system: cat soleus muscle nerve preparation; experiment: Cat soleus muscle nerve preparation, neuromuscular function; format: in vivo; details: for Single impulse transmission: cat soleus muscle nerve preparation
Excerpt: Pirfenidone: Effect on Neuromuscular Function of the Cat Soleus Muscle Nerve Preparation. […] The action resembles that of phenytoin (J. A. Wada, Arch. Neurol., 34: 389–395, 1977).

nerve after-discharge = experiment: After-discharge on electrical nerve stimulation (neuropharmacological tests in cat and frog); details: cat and frog demonstrations
Excerpt: However, the molecular mechanism of the anticonvulsant action within neuronal cells remains unknown.

[5] = system: pentylenetetrazol-induced seizures; details: literature (Krall et al.); cited from earlier work
[6] = man; cited from earlier work
[7] = system: Bullfrog sciatic nerve trunk (de-sheathed); experiment: Frog sciatic nerve trunk high frequency stimulation; details: 10 mM
Excerpt: Pirfenidone: Effect on Frog Sciatic Nerve Trunk High Frequency Stimulation. Bullfrog sciatic nerve trunk (de-sheathed) was stimulated with trains of pulses at 200 Hertz in order to see if pirfenidone affected the nerve's ability to conduct high frequency impulses. […] Drugs that cause “use-dependent” block (high frequency failure) are generally regarded as potential anti-epileptic drugs.

[8] = Plasma concentration after oral dosing in man; format: in vivo
Experimental: In laboratory animals or in man, pirfenidone is well absorbed after oral administration. Plasma pirfenidone concentrations in man peak 1 to 4 hours after dosing. Metabolically, first order kinetics prevail over a daily dose range of 1200 to 3600 milligrams of pirfenidone in divided dosage (t.i.d.). Pirfenidone is cleared primarily by hepatic metabolism (S. Giri et al., Amer. Thoracic Soc. International Conf., Apr. 24-29, 1998) mainly hydroxylation and conjugation, and excreted primarily in the urine. […] The highly rapid and efficient oral bioavailability of pirfenidone in humans contrasts with that of oral phenytoin. In man, absorption of phenytoin after oral ingestion is slow, often variable and can be incomplete so that peak or effective concentrations in plasma and tissues may be delayed for 3 or more hours (E. Perucca and […], “Handbook of Exper. Pharmacol.,” Vol. 74: 831-855, 1985, Springer-Verlag, Berlin.)

For `Cc1cccn(-c2ccccc2)c1=O` [3-methyl-1-phenyl-2-(1H)-pyridone], the “I.P. ED50 (dose protecting 50% of mice against maximal electroshock seizures)” value [1] was “No Activity”, the “I.P. LD50” value [2] was greater than 500 mg/kg and the “ORAL ED50 (dose protecting 50% of mice against pentylenetetrazol-induced seizures)” value [3] was “No Activity”. The “ORAL LD50” value (Oral LD50 (Table 3)) was 650 ± 110 mg/kg.

With `O=C1NC(=O)C(c2ccccc2)(c2ccccc2)N1` [phenytoin (Dilantin), phenytoin, reference compound] the “I.P. ED50 (dose protecting 50% of mice against maximal electroshock seizures)” value [1] was 50 ± 15 mg/kg, the “I.P. LD50” value [2] was 200 ± 45 mg/kg and the “ORAL ED50 (dose protecting 50% of mice against pentylenetetrazol-induced seizures)” value [3] was “No Activity”. The “ORAL LD50” value (Oral LD50 (Table 3)) was 490 ± 35 mg/kg, the Single impulse transmission [4] was “Neither pirfenidone nor phenytoin impair” and the “Block of the classical after-discharge when a nerve is electronically stimulated” value (nerve after-discharge) was “completely block”. For the same compound, the “Activity against pentylenetetrazol seizures” value [5] was “inactive” and the “Delay of peak or effective concentrations in plasma and tissues after oral ingestion” value [6] was no less than 3 h.

For `CCc1ccc(=O)n(-c2ccccc2)c1` [5-ethyl-1-phenyl-2-(1H)-pyridone], the “I.P. ED50 (dose protecting 50% of mice against maximal electroshock seizures)” value [1] was 60 ± 10 mg/kg, the “I.P. LD50” value [2] was 500 ± 61 mg/kg and the “ORAL ED50 (dose protecting 50% of mice against pentylenetetrazol-induced seizures)” value [3] was 285 ± 29 mg/kg. The “ORAL LD50” value (Oral LD50 (Table 3)) was 425 ± 48 mg/kg.

For `O=c1ccccn1-c1ccccc1` [1-phenyl-2-(1H)-pyridone, reference compound], the “I.P. ED50 (dose protecting 50% of mice against maximal electroshock seizures)” value [1] was “No Activity”, the “I.P. LD50” value [2] was greater than 500 mg/kg and the “ORAL ED50 (dose protecting 50% of mice against pentylenetetrazol-induced seizures)” value [3] was “No Activity”. The “ORAL LD50” value (Oral LD50 (Table 3)) was 540 ± 124 mg/kg.

In the case of `Cc1ccc(=O)n(-c2ccccc2)c1` [5-methyl-1-phenyl-2-(1H)-pyridone], the “I.P. ED50 (dose protecting 50% of mice against maximal electroshock seizures)” value [1] is reported as 85 ± 11 mg/kg, the “I.P. LD50” value [2] is reported as 600 ± 43 mg/kg and the “ORAL ED50 (dose protecting 50% of mice against pentylenetetrazol-induced seizures)” value [3] is reported as 325 ± 41 mg/kg. The “ORAL LD50” value (Oral LD50 (Table 3)) was 610 ± 34 mg/kg, the “Conduction of high frequency impulses (200 Hertz pulse trains)” value [7] was “caused definite high frequency failure” and the “Local anesthesia in the nerve” value [7] was “did not cause local anesthesia”. For the same compound, the “Post-tetanic potentiation (PTP)” value ([4]; 50 mg/kg intravenously) was “suppresses the post-tetanic potentiation”, the Single impulse transmission [4] was “Neither pirfenidone nor phenytoin impair” and the “Time of peak plasma concentration after dosing” value [8] was 1 to 4 h. The “Block of the classical after-discharge when a nerve is electronically stimulated” value (nerve after-discharge) was “completely block”.
